# Test results taken from patent US20240000872A1, “NOVEL BACTERIOPHAGE THAT LYSES ACINETOBACTER GENUS BACTERIA HAVING RESISTANCE TO ANTIBIOTICS” (priority 2020, published 2024).
# Test system: Acinetobacter baumannii strains
# Assay: Antibiotic susceptibility test (CLSI disk diffusion test method, read per CLSI 2016)
# Type: cell-based
# Protocol: Strain identification was performed using a kit such as AT 32 GN system (bioMérieux, Marcy l'Etoile, France). […] In Table 2 below, S, I, and R are the results obtained by evaluating susceptibility to the antibacterial agents, in which ‘S’ means susceptible, ‘I’ means intermediate, and ‘R’ means resistant.
# Strain identification was performed using a kit such as ATB 32 GN system (bioMédrieux, Marcy l'Etoile, France). […] In Table 6 below, S, I, and R are the results obtained by evaluating susceptibility to the antibacterial agents, in which ‘S’ means susceptible, ‘I’ means intermediate, and ‘R’ means resistant.
# Strain identification was performed using a kit such as ATB 32 GN system (bioMérieux, Marcy l'Etoile, France). […] In Table 10 below, S, I, and R are the results obtained by evaluating susceptibility to the antibacterial agents, in which ‘S’ means susceptible, T means intermediate, and ‘R’ means resistant.
smiles,measurement,setting,value
"CC(C)(O/N=C(\C(=O)N[C@@H]1C(=O)N2C(C(=O)[O-])=C(C[n+]3ccccc3)CS[C@H]12)c1csc(N)n1)C(=O)O [Ceftazidime, ceftazidime]",antibiotic susceptibility class,host strain YMC14/01/C29,R
same,antibiotic susceptibility class,host strain YMC14/01/IP122,R
same,antibiotic susceptibility class,host strain YMC14/01/L8,R
same,antibiotic susceptibility class,host strain YMC14/01/P31,R
same,antibiotic susceptibility class,host strain YMC14/01/P117,R
same,antibiotic susceptibility class,host strain YMC14/01/P224,R
same,antibiotic susceptibility class,host strain YMC14/01/P727,R
same,antibiotic susceptibility class,host strain YMC14/01/P728,R
same,antibiotic susceptibility class,host strain YMC14/01/R130,R
same,antibiotic susceptibility class,host strain YMC14/01/R160,R
same,antibiotic susceptibility class,host strain YMC14/01/R198,R
same,antibiotic susceptibility class,host strain YMC14/01/R257,R
same,antibiotic susceptibility class,host strain YMC14/01/R270,R
same,antibiotic susceptibility class,host strain YMC14/01/R324,R
same,antibiotic susceptibility class,host strain YMC14/01/R443,R
same,antibiotic susceptibility class,host strain YMC14/01/R451,R
same,antibiotic susceptibility class,host strain YMC14/01/R560,R
same,antibiotic susceptibility class,host strain YMC14/01/R617,I
same,antibiotic susceptibility class,host strain YMC14/01/R671,R
same,antibiotic susceptibility class,host strain YMC14/01/R732,R
same,antibiotic susceptibility class,host strain YMC14/01/R767,R
same,antibiotic susceptibility class,host strain YMC14/01/R904,R
same,antibiotic susceptibility class,host strain YMC14/01/R905,R
same,antibiotic susceptibility class,host strain YMC14/01/R921,R
same,antibiotic susceptibility class,host strain YMC14/01/R941,R
same,antibiotic susceptibility class,host strain YMC14/01/R958,R
same,antibiotic susceptibility class,host strain YMC14/01/R1006,R
same,antibiotic susceptibility class,host strain YMC14/01/R1199,R
same,antibiotic susceptibility class,host strain YMC14/01/R1659,R
same,antibiotic susceptibility class,host strain YMC14/01/R1722,R
same,antibiotic susceptibility class,host strain YMC14/01/R1752,R
same,antibiotic susceptibility class,host strain YMC14/01/R2429,R
same,antibiotic susceptibility class,host strain YMC14/01/R2572,R
same,antibiotic susceptibility class,host strain YMC14/01/R2855,R
same,antibiotic susceptibility class,host strain YMC14/01/R2945,R
same,antibiotic susceptibility class,host strain YMC14/01/R3007,R
same,antibiotic susceptibility class,host strain YMC14/01/R3129,R
same,antibiotic susceptibility class,host strain YMC14/01/R3317,R
same,antibiotic susceptibility class,host strain YMC14/01/R3474,R
same,antibiotic susceptibility class,host strain YMC14/01/R3574,R
same,antibiotic susceptibility class,host strain YMC14/01/U313,R
same,antibiotic susceptibility class,host strain YMC14/01/U318,R
same,antibiotic susceptibility class,host strain YMC14/02/L18,R
same,antibiotic susceptibility class,host strain YMC14/02/P47,R
same,antibiotic susceptibility class,host strain YMC14/02/R1860,R
same,antibiotic susceptibility class,host strain YMC14/02/R2417,R
same,antibiotic susceptibility class,host strain YMC14/02/R2599,R
same,antibiotic susceptibility class,host strain YMC14/02/R2668,R
same,antibiotic susceptibility class,host strain YMC14/02/R2758,R
same,antibiotic susceptibility class,host strain YMC14/02/R2781,R
same,antibiotic susceptibility class,host strain YMC14/02/R3106,R
same,antibiotic susceptibility class,host strain YMC14/02/R3419,R
same,antibiotic susceptibility class,host strain YMC14/02/U1607,R
same,antibiotic susceptibility class,host strain YMC14/03/L9,R
same,antibiotic susceptibility class,host strain YMC14/03/P471,R
same,antibiotic susceptibility class,host strain YMC14/03/R122,R
same,antibiotic susceptibility class,host strain YMC14/03/R217,R
same,antibiotic susceptibility class,host strain YMC14/03/R380,R
same,antibiotic susceptibility class,host strain YMC14/03/R618,R
same,antibiotic susceptibility class,host strain YMC14/03/R2144,R
same,antibiotic susceptibility class,host strain YMC14/03/U4616,R
same,antibiotic susceptibility class,host strain YMC14/04/R1078,R
same,antibiotic susceptibility class,host strain YMC14/04/R1080,R
same,antibiotic susceptibility S/I/R,host strain YMC14/06/R2359,R
same,susceptibility category (S/I/R),host strain YMC14/06/R2359,R
same,antibiotic susceptibility S/I/R,host strain YMC14/08/R1169,R
same,susceptibility category (S/I/R),host strain YMC14/08/R1169,R
same,antibiotic susceptibility S/I/R,host strain YMC14/08/T90,R
same,susceptibility category (S/I/R),host strain YMC14/08/T90,R
same,antibiotic susceptibility S/I/R,host strain YMC15/02/R436,R
same,susceptibility category (S/I/R),host strain YMC15/02/R436,R
same,antibiotic susceptibility S/I/R,host strain YMC15/02/T28,R
same,susceptibility category (S/I/R),host strain YMC15/02/T28,R
same,antibiotic susceptibility S/I/R,host strain YMC15/03/R1604,R
same,susceptibility category (S/I/R),host strain YMC15/03/R1604,R
same,antibiotic susceptibility S/I/R,host strain YMC15/09/R1869,R
same,susceptibility category (S/I/R),host strain YMC15/09/R1869,R
same,antibiotic susceptibility S/I/R,host strain YMC16/01/P11,R
same,susceptibility category (S/I/R),host strain YMC16/01/P11,R
same,antibiotic susceptibility S/I/R,host strain YMC16/01/R123,R
same,susceptibility category (S/I/R),host strain YMC16/01/R123,R
same,antibiotic susceptibility S/I/R,host strain YMC16/01/R198,R
same,susceptibility category (S/I/R),host strain YMC16/01/R198,R
same,antibiotic susceptibility S/I/R,host strain YMC16/01/R353,R
same,susceptibility category (S/I/R),host strain YMC16/01/R353,R
same,antibiotic susceptibility S/I/R,host strain YMC16/01/R380,R
same,susceptibility category (S/I/R),host strain YMC16/01/R380,R
same,antibiotic susceptibility S/I/R,host strain YMC16/01/R397,R
same,susceptibility category (S/I/R),host strain YMC16/01/R397,R
same,antibiotic susceptibility S/I/R,host strain YMC16/01/R405,R
same,susceptibility category (S/I/R),host strain YMC16/01/R405,R
same,antibiotic susceptibility S/I/R,host strain YMC16/03/R4461,R
same,susceptibility category (S/I/R),host strain YMC16/03/R4461,R
same,antibiotic susceptibility S/I/R,host strain YMC16/05/R2210,R
same,susceptibility category (S/I/R),host strain YMC16/05/R2210,R
same,antibiotic susceptibility S/I/R,host strain YMC16/07/R2512,R
same,susceptibility category (S/I/R),host strain YMC16/07/R2512,R
same,antibiotic susceptibility S/I/R,host strain YMC16/09/R2471,R
same,susceptibility category (S/I/R),host strain YMC16/09/R2471,R
same,antibiotic susceptibility S/I/R,host strain YMC16/10/R2537,R
same,susceptibility category (S/I/R),host strain YMC16/10/R2537,R
same,antibiotic susceptibility S/I/R,host strain YMC16/12/B11422,R
same,susceptibility category (S/I/R),host strain YMC16/12/B11422,R
same,antibiotic susceptibility S/I/R,host strain YMC16/12/B11449,R
same,susceptibility category (S/I/R),host strain YMC16/12/B11449,R
same,antibiotic susceptibility S/I/R,host strain YMC16/12/B13325,R
same,susceptibility category (S/I/R),host strain YMC16/12/B13325,R
same,antibiotic susceptibility S/I/R,host strain YMC16/12/P503,R
same,susceptibility category (S/I/R),host strain YMC16/12/P503,R
same,antibiotic susceptibility S/I/R,host strain YMC16/12/R4637,R
same,susceptibility category (S/I/R),host strain YMC16/12/R4637,R
same,antibiotic susceptibility S/I/R,host strain YMC17/01/B8053,R
same,susceptibility category (S/I/R),host strain YMC17/01/B8053,R
same,antibiotic susceptibility S/I/R,host strain YMC17/01/B10087,R
same,susceptibility category (S/I/R),host strain YMC17/01/B10087,R
same,antibiotic susceptibility S/I/R,host strain YMC17/01/B12075,R
same,susceptibility category (S/I/R),host strain YMC17/01/B12075,R
same,antibiotic susceptibility S/I/R,host strain YMC17/01/B13454,R
same,susceptibility category (S/I/R),host strain YMC17/01/B13454,R
same,antibiotic susceptibility S/I/R,host strain YMC17/01/P518,R
same,susceptibility category (S/I/R),host strain YMC17/01/P518,R
same,antibiotic susceptibility S/I/R,host strain YMC17/01/R2812,R
same,susceptibility category (S/I/R),host strain YMC17/01/R2812,R
same,antibiotic susceptibility S/I/R,host strain YMC17/02/B14,R
same,susceptibility category (S/I/R),host strain YMC17/02/B14,R
same,antibiotic susceptibility S/I/R,host strain YMC17/02/B87,R
same,susceptibility category (S/I/R),host strain YMC17/02/B87,R
same,antibiotic susceptibility S/I/R,host strain YMC17/02/B721,R
same,susceptibility category (S/I/R),host strain YMC17/02/B721,R
same,antibiotic susceptibility S/I/R,host strain YMC17/02/B4039,R
same,susceptibility category (S/I/R),host strain YMC17/02/B4039,R
same,antibiotic susceptibility S/I/R,host strain YMC17/02/B4520,R
same,susceptibility category (S/I/R),host strain YMC17/02/B4520,R
same,antibiotic susceptibility S/I/R,host strain YMC17/02/B4864,S
same,susceptibility category (S/I/R),host strain YMC17/02/B4864,S
same,antibiotic susceptibility S/I/R,host strain YMC17/02/B8414,R
same,susceptibility category (S/I/R),host strain YMC17/02/B8414,R
same,antibiotic susceptibility S/I/R,host strain YMC17/02/P523,R
same,susceptibility category (S/I/R),host strain YMC17/02/P523,R
same,antibiotic susceptibility S/I/R,host strain YMC17/02/R541,R
same,susceptibility category (S/I/R),host strain YMC17/02/R541,R
same,antibiotic susceptibility S/I/R,host strain YMC17/02/R2392,R
same,susceptibility category (S/I/R),host strain YMC17/02/R2392,R
same,antibiotic susceptibility S/I/R,host strain YMC17/03/B4730,R
same,susceptibility category (S/I/R),host strain YMC17/03/B4730,R
same,antibiotic susceptibility S/I/R,host strain YMC17/03/B5000,R
same,susceptibility category (S/I/R),host strain YMC17/03/B5000,R
same,antibiotic susceptibility S/I/R,host strain YMC17/03/P971,R
same,susceptibility category (S/I/R),host strain YMC17/03/P971,R
same,antibiotic susceptibility S/I/R,host strain YMC17/03/R348,R
same,susceptibility category (S/I/R),host strain YMC17/03/R348,R
same,antibiotic susceptibility S/I/R,host strain YMC17/03/R585,R
same,susceptibility category (S/I/R),host strain YMC17/03/R585,R
same,antibiotic susceptibility S/I/R,host strain YMC17/03/R1888,R
same,susceptibility category (S/I/R),host strain YMC17/03/R1888,R
same,antibiotic susceptibility S/I/R,host strain YMC17/03/R3279,R
same,susceptibility category (S/I/R),host strain YMC17/03/R3279,R
same,antibiotic susceptibility S/I/R,host strain YMC17/03/R4077,R
same,susceptibility category (S/I/R),host strain YMC17/03/R4077,R
same,antibiotic susceptibility S/I/R,host strain YMC17/03/R4607,R
same,susceptibility category (S/I/R),host strain YMC17/03/R4607,R
same,antibiotic susceptibility S/I/R,host strain YMC17/04/R488,R
same,susceptibility category (S/I/R),host strain YMC17/04/R488,R
same,antibiotic susceptibility S/I/R,host strain YMC17/04/R640,R
same,susceptibility category (S/I/R),host strain YMC17/04/R640,R
same,antibiotic susceptibility S/I/R,host strain YMC/17/05/R1095,R
same,susceptibility category (S/I/R),host strain YMC/17/05/R1095,R
